Laboratory results reported in patent US20190275012A9, “SUBSTITUTED THIAZOLO-PYRIDINE COMPOUNDS AS MALT1 INHIBITORS” (Lupin Limited, priority 2016, published 2019).

Columns and labels:
OCI-Ly-10 cells = test: Anticancer assay (14 days), cell viability by CCK-8; type: cell-based; conditions: Homo sapiens, OCI-Ly10, 336 h, 14 days treatment, fresh treatment every 5th day, CCK-8 viability, read-out: Ly-10 (14d) inhibition IC50
Procedure, shortened: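 OCI-Ly-10 cells in IMDM + 20% FBS exposed to compound for 13–15 days, with media and compound refreshed every 5th day. Viability by CCK-8 absorbance at 450 nm (650 nm background); % inhibition versus 0.1% DMSO medium control.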

full length MALT1 enzyme = target: T1, full length MALT1 enzyme (Homo sapiens, UniProt Q9UDY8); test: MALT1 biochemical assay (fluorescence based, Ac-Leu-Arg-Ser-Arg-AMC cleavage); conditions: full length MALT1 protein, 2 h pre-incubation at RT, tetrapeptide substrate Ac-Leu-Arg-Ser-Arg-AMC, read-out: Malt 1 inhibition IC50
T1 construct: a fluorescence based assay with full length MALT1 enzyme
T1 sequence (Q9UDY8 1-824): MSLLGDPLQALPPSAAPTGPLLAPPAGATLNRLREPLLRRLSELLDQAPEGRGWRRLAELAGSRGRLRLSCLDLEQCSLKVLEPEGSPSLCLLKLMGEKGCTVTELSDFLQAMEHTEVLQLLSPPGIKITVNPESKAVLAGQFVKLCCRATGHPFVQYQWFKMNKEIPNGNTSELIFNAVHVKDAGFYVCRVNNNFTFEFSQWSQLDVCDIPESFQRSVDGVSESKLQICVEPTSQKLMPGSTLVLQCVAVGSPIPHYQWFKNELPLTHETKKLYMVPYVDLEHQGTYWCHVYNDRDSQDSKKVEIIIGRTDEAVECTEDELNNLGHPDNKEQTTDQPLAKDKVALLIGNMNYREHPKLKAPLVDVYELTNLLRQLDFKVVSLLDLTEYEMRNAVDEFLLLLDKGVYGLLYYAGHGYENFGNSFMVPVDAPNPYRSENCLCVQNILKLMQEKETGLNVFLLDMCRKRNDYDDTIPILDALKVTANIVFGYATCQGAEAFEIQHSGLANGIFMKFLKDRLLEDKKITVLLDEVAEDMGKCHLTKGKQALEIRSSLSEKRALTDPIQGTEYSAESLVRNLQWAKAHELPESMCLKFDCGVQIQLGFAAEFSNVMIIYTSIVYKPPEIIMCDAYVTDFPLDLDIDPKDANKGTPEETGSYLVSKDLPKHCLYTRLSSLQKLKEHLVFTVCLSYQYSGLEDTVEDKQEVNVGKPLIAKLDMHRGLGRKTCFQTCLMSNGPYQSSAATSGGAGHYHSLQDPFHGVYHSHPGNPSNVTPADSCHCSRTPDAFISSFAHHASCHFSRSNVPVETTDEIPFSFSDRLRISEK
Procedure, shortened: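 Full-length MALT1 (100-300 ng/well) was pre-incubated with compound for 2 h at RT, then 100 μM Ac-LRSR-AMC was added for 4-12 h. Buffer was 50 mM MES, 150 mM NaCl, 0.1% CHAPS, 1 M ammonium citrate, 10 mM DTT, pH 7, with 0.5% DMSO. IC50 was derived from AMC fluorescence (ex 360/em 460 nm).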

[1] = tested on: NF-kB transcriptional activity in HEK-293-NF-kB-Luc cell line overexpressing MALT1; test: NF-kB reporter assay (luciferase, MALT1 stably overexpressed); type: cell-based; conditions: Homo sapiens, 24 h, HEK-293-NF-kB-Luc cells stably overexpressing MALT1, 24 h treatment, Bright Glo luminescence; read-out: NF-kB inhibition IC50
Procedure, shortened: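 Inhibition of NF-κB activity was expressed relative to 0.1% DMSO wells, from luminescence after 10 min Bright Glo at ambient temperature. Compounds had been applied for 24 h to adhered MALT1-overexpressing HEK-293 NF-κB luciferase reporter cells.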

Row | IC50 (OCI-Ly-10 cells) | IC50 (full length MALT1 enzyme) | SMILES | IC50 [1]
1 | 0.1 to 25 nM | 1 to 50 nM | COC(C)c1c(NC(=O)Nc2ccc(-n3nccn3)c(Cl)c2)cnc2sc(C)nc12 (single isomer, unassigned) [Compound 158b, 1-(3-Chloro-4-(2H-1,2,3-triazol-2-yl)phenyl)-3-(7-(1-methoxyethyl)-2-methylthiazolo[5,4-b]pyridin-6-yl)urea] | 1 to 100 nM
2 | 501 to 1500 nM | 1 to 50 nM | CCOC(C)c1c(NC(=O)Nc2cnc(OC)c(Cl)c2)cnc2sc(C)nc12 (racemic) [Compound 162, 1-(5-Chloro-6-methoxypyridin-3-yl)-3-(7-(1-ethoxyethyl)-2-methylthiazolo[5,4-b]pyridin-6-yl)urea] | 1 to 100 nM
3 | 251 to 500 nM | 51 to 100 nM | COC(C)c1c(NC(=O)Nc2cc(-n3nccn3)cc(C(F)(F)F)c2)cnc2sc(C)nc12 (single isomer, unassigned) [Compound 217b, (S) or (R)-1-(3-(2H-1,2,3-triazol-2-yl)-5-(trifluoromethyl)phenyl)-3-(7-(1-methoxyethyl)-2-methylthiazolo[5,4-b]pyridin-6-yl)urea] | 1 to 100 nM
4 | 26 to 100 nM | 1 to 50 nM | COC(c1c(NC(=O)Nc2ccc(-n3nccn3)c(C(F)(F)F)c2)cnc2sc(C)nc12)C1CC1 (single isomer, unassigned) [Compound 153b, 1-(4-(2H-1,2,3-Triazol-2-yl)-3-(trifluoromethyl)phenyl)-3-(7-(cyclopropyl(methoxy)methyl)-2-methylthiazolo[5,4-b]pyridin-6-yl)urea] | 1 to 100 nM
5 | 251 to 500 nM | 1 to 50 nM | Cc1nc2c(C3(CO)CC3)c(NC(=O)Nc3cnc(-n4nccn4)c(C(F)(F)F)c3)cnc2s1 [Compound 223, 1-(6-(2H-1,2,3-Triazol-2-yl)-5-(trifluoromethyl)pyridin-3-yl)-3-(7-(1-(hydroxymethyl)cyclopropyl)-2-methylthiazolo[5,4-b]pyridin-6-yl)urea] | 1 to 100 nM

Further lines, the compound ahead of its results:

Row | SMILES | IC50 (OCI-Ly-10 cells) | IC50 (full length MALT1 enzyme) | IC50 [1]
6 | COC(c1c(NC(=O)Nc2cnc(-n3nccn3)c(C(F)(F)F)c2)cnc2sc(C)nc12)C(C)(C)C (single isomer, unassigned) [Compound 57b, 1-(6-(2H-1,2,3-Triazol-2-yl)-5-(trifluoromethyl)pyridin-3-yl)-3-(7-(1-methoxy-2,2-dimethylpropyl)-2-methylthiazolo[5,4-b]pyridin-6-yl)urea] | 26 to 100 nM | 1 to 50 nM | 1 to 100 nM
7 | CCC(OC)c1c(NC(=O)Nc2ccc(-n3nccn3)c(C(F)(F)F)c2)cnc2sc(C)nc12 (single isomer, unassigned) [Compound 147b, 1-(4-(2H-1,2,3-Triazol-2-yl)-3-(trifluoromethyl)phenyl)-3-(7-(1-methoxypropyl)-2-methylthiazolo[5,4-b]pyridin-6-yl)urea] | 0.1 to 25 nM | 1 to 50 nM | 1 to 100 nM
8 | COC(c1c(NC(=O)Nc2ccc(-n3nccn3)c(Cl)c2)cnc2sc(C)nc12)C1CC1 (single isomer, unassigned) [Compound 144b, 1-(3-Chloro-4-(2H-1,2,3-triazol-2-yl)phenyl)-3-(7-(cyclopropyl(methoxy)methyl)-2-methylthiazolo[5,4-b]pyridin-6-yl)urea] | 0.1 to 25 nM | 1 to 50 nM | 1 to 100 nM
9 | COC(C)(c1c(NC(=O)Nc2ccc(-n3nccn3)c(C(F)(F)F)c2)cnc2sc(C)nc12)C1CC1 (single isomer, unassigned) [Compound 94b, 1-(4-(2H-1,2,3-triazol-2-yl)-3-(trifluoromethyl)phenyl)-3-(7-(1-cyclopropyl-1-methoxyethyl)-2-methylthiazolo[5,4-b]pyridin-6-yl)urea] | 26 to 100 nM | 1 to 50 nM | 1 to 100 nM
